Reference: patent publication EP4745135A1 (Gluetacs Therapeutics (Shanghai) Co., Ltd., priority 2023, dated 2025)

How the values were obtained:
[1] = target: T1, CK1α (Homo sapiens, UniProt P48729+Q96SW2); experiment: Western blot, degradation of substrate protein in hPBMCs; assay type: cell-based
T1 construct: effects of the compounds of the present disclosure on the expression of target proteins in cells; endogenous in cells; host or cells: human PBMCs (Milecell Biotechnologies)

[2] = target: T2, IKZF1 (Homo sapiens, UniProt Q13422+Q96SW2); experiment: as above; assay type: cell-based
T2 construct: effects of the compounds of the present disclosure on the expression of target proteins in cells; endogenous in cells; host or cells: human PBMCs (Milecell Biotechnologies)
T2 sequence (Q13422 whole entry): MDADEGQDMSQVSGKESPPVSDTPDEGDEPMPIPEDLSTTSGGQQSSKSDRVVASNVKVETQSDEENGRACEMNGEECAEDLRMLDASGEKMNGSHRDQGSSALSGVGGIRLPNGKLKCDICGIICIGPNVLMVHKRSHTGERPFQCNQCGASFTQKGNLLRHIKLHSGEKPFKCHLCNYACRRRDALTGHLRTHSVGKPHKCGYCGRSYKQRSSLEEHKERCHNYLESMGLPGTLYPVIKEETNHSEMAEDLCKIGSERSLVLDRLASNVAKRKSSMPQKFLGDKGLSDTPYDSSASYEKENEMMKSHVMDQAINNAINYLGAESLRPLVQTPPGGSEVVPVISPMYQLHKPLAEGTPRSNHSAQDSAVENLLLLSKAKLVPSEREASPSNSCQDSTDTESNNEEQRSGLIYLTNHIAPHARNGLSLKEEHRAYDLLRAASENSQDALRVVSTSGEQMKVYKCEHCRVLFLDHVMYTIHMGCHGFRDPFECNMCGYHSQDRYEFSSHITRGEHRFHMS
T2 sequence (Q96SW2 whole entry): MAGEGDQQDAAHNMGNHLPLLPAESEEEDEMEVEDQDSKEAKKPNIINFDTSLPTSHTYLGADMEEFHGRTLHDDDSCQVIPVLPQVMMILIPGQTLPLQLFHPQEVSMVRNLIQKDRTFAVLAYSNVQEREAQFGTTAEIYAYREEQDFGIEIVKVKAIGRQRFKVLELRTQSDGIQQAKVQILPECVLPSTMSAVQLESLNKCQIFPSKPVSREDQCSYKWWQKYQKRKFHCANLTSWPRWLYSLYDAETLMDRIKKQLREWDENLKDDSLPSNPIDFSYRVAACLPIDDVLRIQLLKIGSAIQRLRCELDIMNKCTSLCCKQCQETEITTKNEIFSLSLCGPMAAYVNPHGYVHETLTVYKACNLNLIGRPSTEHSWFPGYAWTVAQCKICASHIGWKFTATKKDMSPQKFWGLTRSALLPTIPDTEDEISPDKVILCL
T2 sequence (Q16531 whole entry partner): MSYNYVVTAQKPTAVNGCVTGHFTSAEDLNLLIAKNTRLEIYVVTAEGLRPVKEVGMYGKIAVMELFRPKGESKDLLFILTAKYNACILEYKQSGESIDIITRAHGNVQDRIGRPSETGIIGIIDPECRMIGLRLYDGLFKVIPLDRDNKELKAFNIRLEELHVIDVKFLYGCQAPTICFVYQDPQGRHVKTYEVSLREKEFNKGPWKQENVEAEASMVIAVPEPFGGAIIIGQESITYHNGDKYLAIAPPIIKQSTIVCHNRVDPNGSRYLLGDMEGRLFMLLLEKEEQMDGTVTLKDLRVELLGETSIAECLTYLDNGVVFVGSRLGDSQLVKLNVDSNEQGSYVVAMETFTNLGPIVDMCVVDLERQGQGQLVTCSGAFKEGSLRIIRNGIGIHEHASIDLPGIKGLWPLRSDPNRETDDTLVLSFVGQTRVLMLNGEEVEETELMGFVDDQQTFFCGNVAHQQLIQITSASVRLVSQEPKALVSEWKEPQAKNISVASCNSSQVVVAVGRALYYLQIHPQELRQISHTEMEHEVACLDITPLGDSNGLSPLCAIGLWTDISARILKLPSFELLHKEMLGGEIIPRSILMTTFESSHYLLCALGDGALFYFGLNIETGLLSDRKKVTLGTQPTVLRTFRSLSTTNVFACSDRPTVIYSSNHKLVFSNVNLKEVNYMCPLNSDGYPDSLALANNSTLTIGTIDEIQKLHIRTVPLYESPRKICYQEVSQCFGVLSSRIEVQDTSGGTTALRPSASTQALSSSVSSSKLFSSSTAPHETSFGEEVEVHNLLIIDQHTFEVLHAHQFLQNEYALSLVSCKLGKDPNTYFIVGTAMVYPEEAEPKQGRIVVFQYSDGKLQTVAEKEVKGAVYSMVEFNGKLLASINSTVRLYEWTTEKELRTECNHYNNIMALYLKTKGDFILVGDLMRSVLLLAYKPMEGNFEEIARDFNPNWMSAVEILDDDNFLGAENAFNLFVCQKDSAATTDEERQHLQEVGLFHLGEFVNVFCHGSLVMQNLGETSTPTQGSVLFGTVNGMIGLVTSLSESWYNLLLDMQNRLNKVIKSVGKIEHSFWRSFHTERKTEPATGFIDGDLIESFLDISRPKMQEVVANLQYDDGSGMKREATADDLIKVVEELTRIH

[3] = target: T3, IKZF2 (Homo sapiens, UniProt Q96SW2+Q9UKS7); experiment: as above; assay type: cell-based
T3 construct: effects of the compounds of the present disclosure on the expression of target proteins in cells; endogenous in cells; host or cells: human PBMCs (Milecell Biotechnologies)
T3 sequence (Q9UKS7 whole entry): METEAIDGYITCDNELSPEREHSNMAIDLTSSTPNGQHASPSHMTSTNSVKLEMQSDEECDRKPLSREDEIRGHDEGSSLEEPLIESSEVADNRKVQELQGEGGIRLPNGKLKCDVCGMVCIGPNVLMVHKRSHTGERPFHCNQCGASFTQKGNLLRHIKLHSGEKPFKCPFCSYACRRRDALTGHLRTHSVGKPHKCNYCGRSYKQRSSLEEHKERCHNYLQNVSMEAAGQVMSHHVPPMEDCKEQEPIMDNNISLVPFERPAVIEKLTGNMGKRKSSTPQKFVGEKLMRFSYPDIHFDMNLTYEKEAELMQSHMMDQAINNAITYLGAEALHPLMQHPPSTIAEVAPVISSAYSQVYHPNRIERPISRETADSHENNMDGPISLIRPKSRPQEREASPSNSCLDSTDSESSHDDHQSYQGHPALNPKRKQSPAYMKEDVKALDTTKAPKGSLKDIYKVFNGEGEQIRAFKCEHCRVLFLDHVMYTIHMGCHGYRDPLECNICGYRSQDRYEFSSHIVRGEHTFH
T3 sequence (Q96SW2 whole entry): as the sequence (Q96SW2 whole entry) above
T3 sequence (Q16531 whole entry partner): as the sequence (Q16531 whole entry partner) above

[4] = target: T4, IKZF3 (Homo sapiens, UniProt Q96SW2+Q9UKT9); experiment: as above; assay type: cell-based
T4 construct: effects of the compounds of the present disclosure on the expression of target proteins in cells; endogenous in cells; host or cells: human PBMCs (Milecell Biotechnologies)
T4 sequence (Q9UKT9 whole entry): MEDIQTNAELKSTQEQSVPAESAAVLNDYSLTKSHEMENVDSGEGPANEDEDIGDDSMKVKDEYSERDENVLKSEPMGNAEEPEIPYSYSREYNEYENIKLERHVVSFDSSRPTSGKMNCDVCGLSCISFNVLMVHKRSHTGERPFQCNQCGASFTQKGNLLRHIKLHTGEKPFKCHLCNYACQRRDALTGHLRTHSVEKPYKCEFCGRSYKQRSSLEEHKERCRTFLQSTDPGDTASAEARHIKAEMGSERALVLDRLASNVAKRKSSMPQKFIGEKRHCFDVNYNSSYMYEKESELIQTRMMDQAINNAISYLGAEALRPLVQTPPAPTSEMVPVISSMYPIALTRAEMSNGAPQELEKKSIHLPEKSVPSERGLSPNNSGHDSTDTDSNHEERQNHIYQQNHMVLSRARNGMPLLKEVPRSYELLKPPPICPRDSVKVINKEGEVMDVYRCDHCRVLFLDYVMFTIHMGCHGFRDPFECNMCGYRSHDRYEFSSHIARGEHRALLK
T4 sequence (Q96SW2 whole entry): as the sequence (Q96SW2 whole entry) above
T4 sequence (Q16531 whole entry partner): as the sequence (Q16531 whole entry partner) above

[5] = target: T5, WEE1 (Homo sapiens, UniProt P30291+Q96SW2); experiment: as above; assay type: cell-based
T5 construct: effects of the compounds of the present disclosure on the expression of target proteins in cells; endogenous in cells; host or cells: human PBMCs (Milecell Biotechnologies)
T5 sequence (P30291 whole entry): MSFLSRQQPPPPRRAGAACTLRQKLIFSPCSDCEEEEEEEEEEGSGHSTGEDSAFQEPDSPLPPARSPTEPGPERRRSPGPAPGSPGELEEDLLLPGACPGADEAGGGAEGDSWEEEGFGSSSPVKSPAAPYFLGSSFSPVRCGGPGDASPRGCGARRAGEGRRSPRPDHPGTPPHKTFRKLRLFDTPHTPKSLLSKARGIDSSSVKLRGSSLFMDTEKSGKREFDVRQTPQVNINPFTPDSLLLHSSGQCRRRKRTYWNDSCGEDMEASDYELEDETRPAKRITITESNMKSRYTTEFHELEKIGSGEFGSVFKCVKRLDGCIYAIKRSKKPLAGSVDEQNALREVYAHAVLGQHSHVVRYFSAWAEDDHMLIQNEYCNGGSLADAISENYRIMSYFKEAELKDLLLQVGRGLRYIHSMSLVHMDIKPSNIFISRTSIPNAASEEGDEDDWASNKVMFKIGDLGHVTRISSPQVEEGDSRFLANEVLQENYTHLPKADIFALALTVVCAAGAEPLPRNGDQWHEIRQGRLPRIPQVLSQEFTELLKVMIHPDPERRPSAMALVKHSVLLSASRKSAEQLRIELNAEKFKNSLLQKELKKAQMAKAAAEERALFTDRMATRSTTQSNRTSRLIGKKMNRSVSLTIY
T5 sequence (Q96SW2 whole entry): as the sequence (Q96SW2 whole entry) above
T5 sequence (Q16531 whole entry partner): as the sequence (Q16531 whole entry partner) above

[6] = test system: GSPT1; experiment: as above; assay type: cell-based, Human
[7] = target: T6, human Cereblon WT GST-tagged protein (Homo sapiens, UniProt Q96SW2); experiment: CRBN-binding affinity, HTRF (CEREBLON BINDING kit); settings: for inhibition at 0.5 µM: read-out: Inhibition Rate at 0.5 µM (%); for inhibition at 2 µM: read-out: Inhibition Rate at 2 µM (%)
T6 construct: purchased CISBIO 64BDCRBNPEH
T6 sequence (Q96SW2 whole entry): as the sequence (Q96SW2 whole entry) above

[8] = Western blot, 24 hours of compound treatment, compounds tested at 50 nM and 500 nM (concentration for the table not stated)
[9] = 24 hours treatment, compounds at 50 nM and 500 nM (concentration behind the class not stated)

T1 sequence (P48729 whole entry): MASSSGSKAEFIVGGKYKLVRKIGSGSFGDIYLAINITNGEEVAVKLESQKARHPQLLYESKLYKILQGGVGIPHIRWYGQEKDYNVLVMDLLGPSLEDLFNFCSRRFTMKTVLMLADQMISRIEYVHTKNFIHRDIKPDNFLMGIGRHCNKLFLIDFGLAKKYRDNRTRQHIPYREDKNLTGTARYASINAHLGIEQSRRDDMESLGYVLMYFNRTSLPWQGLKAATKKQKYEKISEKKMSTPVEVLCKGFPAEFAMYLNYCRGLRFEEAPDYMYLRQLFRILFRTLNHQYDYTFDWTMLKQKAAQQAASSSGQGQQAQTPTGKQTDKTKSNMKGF
T1 sequence (Q96SW2 whole entry): as the sequence (Q96SW2 whole entry) above
T1 sequence (Q16531 whole entry partner): as the sequence (Q16531 whole entry partner) above

SMILES	CK1α substrate protein remaining % [1, 8]	IKZF 1 substrate protein remaining % [2, 8]	IKZF2 substrate protein remaining % [3, 8]	IKZF3 substrate protein remaining % [4, 8]	Wee1 substrate protein remaining % [5, 8]	GSPT1 substrate protein remaining % [6, 8]	inhibition at 0.5 µM [7] [%]	inhibition at 2 µM [7] [%]	CK1α substrate protein remaining % [1, 9]	IKZF 1 substrate protein remaining % [2, 9]	IKZF2 substrate protein remaining % [3, 9]	IKZF3 substrate protein remaining % [4, 9]	Wee1 substrate protein remaining % [5, 9]	GSPT1 substrate protein remaining % [6, 9]	IC50 ([7]; CRBN binding, HTRF, 3 hours at room temperature, read-out: HTRF IC50) [nM]
O=C1CCC(N2Cc3c(CN4CCN(c5ncncn5)CC4)cccc3C2=S)C(=O)N1 (centres unmarked) [GT-08808, 3-(4-((4-(1,3,5-triazin-2-yl)piperazin-1-yl)methyl)-1-thioxoisoindolin-2-yl)piperidine-2,6-dione]	B (80%< substrate protein remaining %≤ 100%)	B (80%< substrate protein remaining %≤ 100%)	B (80%< substrate protein remaining %≤ 100%)	B (80%< substrate protein remaining %≤ 100%)	A (0% ≤ substrate protein remaining % ≤ 80%)	B (80%< substrate protein remaining %≤ 100%)	60 to 80	80 to 100							
O=C1CCC(N2Cc3cc(CN4CCN(c5ccc(F)c(F)c5)CC4)ccc3C2=S)C(=O)N1 (centres unmarked) [GT-08627, 3-(5-((4-(3,4-difluorophenyl)piperazin-1-yl)methyl)-1-thioxoisoindolin-2-yl)piperidine-2,6-dione]	B (80%< substrate protein remaining %≤ 100%)	B (80%< substrate protein remaining %≤ 100%)	B (80%< substrate protein remaining %≤ 100%)	B (80%< substrate protein remaining %≤ 100%)	B (80%< substrate protein remaining %≤ 100%)	A (0% ≤ substrate protein remaining % ≤ 80%)	60 to 80	80 to 100							
O=C1CCC(N2Cc3c(CN4CCN(c5c(Cl)cncc5Br)CC4)cccc3C2=S)C(=O)N1 (centres unmarked) [GT-08801, 3-(4-((4-(3-bromo-5-chloropyridin-4-yl)piperazin-1-yl)methyl)-1-thioxoisoindolin-2-yl)piperidine-2,6-dione]	B (80%< substrate protein remaining %≤ 100%)	B (80%< substrate protein remaining %≤ 100%)	B (80%< substrate protein remaining %≤ 100%)	B (80%< substrate protein remaining %≤ 100%)	A (0% ≤ substrate protein remaining % ≤ 80%)	B (80%< substrate protein remaining %≤ 100%)	60 to 80	80 to 100							
O=C1CCC(N2Cc3c(CN4CCN(c5ccc(Cl)nc5)CC4)cccc3C2=S)C(=O)N1 (centres unmarked) [GT-08723, 3-(4-((4-(6-chloropyridin-3-yl)piperazin-1-yl)methyl)-1-thioxoisoindolin-2-yl)piperidine-2,6-dione]	B (80%< substrate protein remaining %≤ 100%)	B (80%< substrate protein remaining %≤ 100%)	A (0% ≤ substrate protein remaining % ≤ 80%)	A (0% ≤ substrate protein remaining % ≤ 80%)	A (0% ≤ substrate protein remaining % ≤ 80%)	A (0% ≤ substrate protein remaining % ≤ 80%)	60 to 80	80 to 100							
O=C1CCC(N2Cc3c(CN4CCC(c5cccc(Cl)c5Cl)CC4)cccc3C2=S)C(=O)N1 (centres unmarked) [GT-08269, 3-(4-((4-(2,3-dichlorophenyl)piperidin-1-yl)methyl)-1-thioxoisoindolin-2-yl)piperidine-2,6-dione]	B (80%< substrate protein remaining %≤ 100%)	B (80%< substrate protein remaining %≤ 100%)	B (80%< substrate protein remaining %≤ 100%)	B (80%< substrate protein remaining %≤ 100%)	A (0% ≤ substrate protein remaining % ≤ 80%)	A (0% ≤ substrate protein remaining % ≤ 80%)	30 to 40	53 to 60							
O=C1CCC(N2Cc3ccc(CN4CCN(c5cccc(Cl)c5Cl)CC4)cc3C2=S)C(=O)N1 (centres unmarked) [GT-05033, 3-(6-((4-(2,3-dichlorophenyl)piperazin-1-yl)methyl)-1-thioxoisoindolin-2-yl)piperidine-2,6-dione]									B (80%< substrate protein remaining %≤ 100%)	B (80%< substrate protein remaining %≤ 100%)	B (80%< substrate protein remaining %≤ 100%)	A (0% ≤ substrate protein remaining % ≤ 80%)	B (80%< substrate protein remaining %≤ 100%)	A (0% ≤ substrate protein remaining % ≤ 80%)	100 to 500
O=C1CCC(N2Cc3c(CN4CCN(c5nsc6cc(F)ccc56)CC4)cccc3C2=S)C(=O)N1 (centres unmarked) [GT-08839, 3-(4-((4-(6-fluorobenzo[d]isothiazol-3-yl)piperazin-1-yl)methyl)-1-thioxoisoindolin-2-yl)piperidine-2,6-dione]	B (80%< substrate protein remaining %≤ 100%)	B (80%< substrate protein remaining %≤ 100%)	B (80%< substrate protein remaining %≤ 100%)	B (80%< substrate protein remaining %≤ 100%)	A (0% ≤ substrate protein remaining % ≤ 80%)	B (80%< substrate protein remaining %≤ 100%)	60 to 80	80 to 100							
O=C1CCC(N2Cc3c(CN4CCC(c5cccc(C(F)(F)F)c5)CC4)cccc3C2=S)C(=O)N1 (centres unmarked) [GT-08599, 3-(1-thioxo-4-((4-(3-(trifluoromethyl)phenyl)piperidin-1-yl)methyl)isoindolin-2-yl)piperidine-2,6-dione]	B (80%< substrate protein remaining %≤ 100%)	B (80%< substrate protein remaining %≤ 100%)	B (80%< substrate protein remaining %≤ 100%)	B (80%< substrate protein remaining %≤ 100%)	A (0% ≤ substrate protein remaining % ≤ 80%)	B (80%< substrate protein remaining %≤ 100%)	30 to 40	60 to 80							
O=C1CCC(N2Cc3c(CN4CC(c5ccnc6cc(F)ccc56)C4)cccc3C2=S)C(=O)N1 (centres unmarked) [GT-08860, 3-(4-((3-(7-fluoroquinolin-4-yl)azetidin-1-yl)methyl)-1-thioxoisoindolin-2-yl)piperidine-2,6-dione]							60 to 80	80 to 100	B (80%< substrate protein remaining %≤ 100%)	B (80%< substrate protein remaining %≤ 100%)	B (80%< substrate protein remaining %≤ 100%)	B (80%< substrate protein remaining %≤ 100%)	A (0% ≤ substrate protein remaining % ≤ 80%)	A (0% ≤ substrate protein remaining % ≤ 80%)	
CC1(C)CCC(CN2CC3CCC2CN3Cc2cccc3c2CN(C2CCC(=O)NC2=O)C3=S)=C(c2ccc(Cl)cc2)C1 (centres unmarked) [GT-08302, 3-(4-((5-((4'-chloro-5,5-dimethyl-3,4,5,6-tetrahydro-[1,1'-biphenyl]-2-yl)methyl)-2,5-diazabicyclo[2.2.2]octan-2-yl)methyl)-1-thioxoisoindolin-2-yl)piperidine-2,6-dione]	B (80%< substrate protein remaining %≤ 100%)	B (80%< substrate protein remaining %≤ 100%)	B (80%< substrate protein remaining %≤ 100%)	B (80%< substrate protein remaining %≤ 100%)	A (0% ≤ substrate protein remaining % ≤ 80%)	B (80%< substrate protein remaining %≤ 100%)	30 to 40	80 to 100							
O=C1CCC(N2Cc3cc(CN4CCN(C(c5ccccc5)c5ccncc5)CC4)ccc3C2=S)C(=O)N1 (centres unmarked) [GT-07733, 3-(5-((4-(phenyl(pyridin-4-yl)methyl)piperazin-1-yl)methyl)-1-thioxoisoindolin-2-yl)piperidine-2,6-dione]	B (80%< substrate protein remaining %≤ 100%)	B (80%< substrate protein remaining %≤ 100%)	B (80%< substrate protein remaining %≤ 100%)	A (0% ≤ substrate protein remaining % ≤ 80%)	A (0% ≤ substrate protein remaining % ≤ 80%)	A (0% ≤ substrate protein remaining % ≤ 80%)	60 to 80	80 to 100							
O=C1CCC(N2Cc3cc(CN4CCN(c5cccc(F)n5)CC4)ccc3C2=S)C(=O)N1 (centres unmarked) [GT-09221, 3-(5-((4-(6-fluoropyridin-2-yl)piperazin-1-yl)methyl)-1-thioxoisoindolin-2-yl)piperidine-2,6-dione]	B (80%< substrate protein remaining %≤ 100%)	A (0% ≤ substrate protein remaining % ≤ 80%)	B (80%< substrate protein remaining %≤ 100%)	B (80%< substrate protein remaining %≤ 100%)	A (0% ≤ substrate protein remaining % ≤ 80%)	B (80%< substrate protein remaining %≤ 100%)	80 to 100	80 to 100							
